Laboratory results as given in paper PMC8378262 (Journal of controlled release : official journal of the …, 2021).

System: Sprague Dawley rats
Assay: Mean systemic arterial pressure
Type: in vivo
Details: healthy rats, intravenous 3 mg/kg

## O=S(=O)(c1cccc2cnccc12)N1CCCNCC1 [Fasudil, reference compound]
  duration of the reduction in mSAP after injection: 90 min
Within 30 min
  maximum reduction of mSAP from baseline: 38.6±8.4%

## O=[N+]([O-])c1ccc(COc2nccc3c(S(=O)(=O)N4CCCNCC4)cccc23)cc1 [FasPRO, 5-((1,4-diazepan-1-yl)sulfonyl)-1-((4-nitrobenzyl)oxy)isoquinoline]
Until 6 h after injection
  change in mSAP: did not produce any changes in mSAP
